Experimental data: patent US20230047825A1, “ANTIMICROBIAL PEPTIDES” (priority 2019, published 2023)
In brackets after ≈: the same amount, converted by molar mass. Read-outs that look alike come from different tables or passages of the source. Where a SMILES comes first, the peptide text is derived from it.

How the values were obtained:
[1] = tested on: Pseudomonas aeruginosa PA01; experiment: Antibacterial activity assay (broth microdilution MIC); assay type: cell-based; conditions: for MIC, Stability in serum (MH) / MIC on initial panels: in µg/mL; for MIC on initial panels: medium and unit not given
[2] = tested on: VR Enterococcus faecium NCTC 12204; experiment: as above; assay type: cell-based; conditions: VRE12204, in µg/mL
C. albicans = experiment: MIC on initial panels, fungi; assay type: cell-based; conditions: unit inferred
[3] = tested on: Acinetobacter baumannii AYE; assay type: cell-based; conditions: AYE; for MIC on initial panels: medium and unit not given
[4] = tested on: EMR Staphylococcus aureus-16 (EMRSA-16); assay type: cell-based; conditions: EMRSA16; for MIC on initial panels: medium and unit not given, in µg/mL
Klebsiella pneumoniae M6 = assay type: cell-based; conditions: for MIC on initial panels: medium and unit not given, in µg/mL
[5] = tested on: Acinetobacter baumannii ATCC 17978; assay type: cell-based; conditions: in µg/mL; for MIC on initial panels: medium and unit not given; for MIC, Stability in serum (MH): Ab17978
HEK293 = experiment: Cytotoxicity assay (XTT); assay type: cell-based, human; conditions: for Toxicity HEK293: unit not given
Procedure: (§1) Cytotoxicity assay. HeLa and HEK293 cell lines were purchased from ECACC and cultured in Eagle's Minimum Essential Media (EMEM) containing glutamine, supplemented with 10% FBS and 1× non-essential amino acids (NEAA) at 37° C., 10% CO2. Cytotoxicity was measured by incubating starter cultures of cells for 24 hours in a 96 well plate, gently removing the supernatant and replacing it with dilutions of peptides and controls, incubating for a further 24 hours and then staining of the cells with the second generation tetrazolium dye, XTT. […]

[6] = tested on: EMR Staphylococcus aureus-15 (EMRSA-15); assay type: cell-based; conditions: for MIC on initial panels: medium and unit inferred
HeLa = experiment: Cytotoxicity assay (XTT); assay type: cell-based, human; set-up: Toxicity HeLa: unit not given beside the values; conditions: for Toxicity HeLa: unit not given
Procedure: as §1

VRE12201 = experiment: Antibacterial activity assay (broth microdilution MIC); assay type: cell-based, Enterococcus faecalis; conditions: medium and unit inferred
Source text: (§2) Antibacterial activity assay.
The bacterial strains used are as in the above examples. A table of strains is provided below to aid understanding.

P. aeruginosa RP73 = experiment: as above; assay type: cell-based, Pseudomonas aeruginosa; conditions: in µg/mL
Procedure: as §2
Synergy experiments were performed following a checkerboard protocol.

human red blood cells = experiment: Haemolysis assay; conditions: red cells of human, 1 h
Procedure: Haemolysis assay. Haemolysis was tested by incubating titrations of AMPs in PBS with freshly collected human red blood cells for 1 hour at 37 C. Control wells were treated with 0.1% Triton-X-100 to ensure complete lysis, or PBS-only to represent no lysis. Samples were spun down to remove non-lysed cells and the OD^550 of the supernatant was measured using a Clariostar plate reader. The percentage of haemolysis was calculated as % haemolysis=(AP−AB)/(AC−AB)×100, where AP is the absorbance value for a known peptide concentration, AC is the absorbance of the 0.1% Triton-X-100 control, AB is the absorbance of the PBS control. Data presented are averages and standard error from three biological replicate experiments.
Methods: The natural AMP (termed AMP1) was modified to produce synthetic variants, AMPs 1a, 2a, 2b, 3a and 3b. Minimum inhibitory concentrations (MICs) were determined using the microbroth dilution assay with Mueller Hinton broth (MHB) or RPMI (with 5% FBS) and stability in serum was tested by conducting MICs in MHB containing 10% FBS. Synergy experiments were performed following a checkerboard protocol. Cytotoxicity was tested against HEK293 and HeLa immortalised human cell-lines using the XTT viability stain and by quantifying haemolysis of human red blood cells. Patch clamp analysis was performed using the Port-a-Patch® automated patch-clamp system on DPhPE/DPhPG (model for a Gram-negative plasma membrane) or DPhPG (Gram-positive) model membranes challenged with peptide. The murine lung infection model was performed using the agar bead model with Staphylococcus aureus strain NCTC 13616 (EMRSA-15).

[7] = tested on: Escherichia coli NCTC 12923; assay type: cell-based; conditions: EC12923; for MIC on initial panels: medium and unit not given
[8] = tested on: MS Staphylococcus aureus ATCC 9144; assay type: cell-based; conditions: MSSA9144; for MIC on initial panels: medium and unit inferred
[9] = tested on: Klebsiella pneumoniae NCTC 13368; assay type: cell-based; conditions: KP13368, in µg/mL; for MIC on initial panels: medium and unit not given
Calu-3 = experiment: Cytotoxicity assay; assay type: cell-based; conditions: value printed in parentheses
[10] = tested on: VS Enterococcus faecalis NCTC 775; experiment: Antibacterial activity assay (broth microdilution MIC); assay type: cell-based; conditions: for MIC on initial panels: VSE775, medium and unit not given, in µg/mL
[11] = tested on: Pseudomonas aeruginosa NCTC 13437; experiment: as above; assay type: cell-based; conditions: PA13437, in µg/mL; for MIC on initial panels: medium and unit not given
A549 = experiment: Cytotoxicity assay; assay type: cell-based; conditions: value printed in parentheses
[12] = untitled table, medium/unit inferred, values match RPMI of Table 2
[13] = untitled table, medium/unit not given, values match RPMI of Table 2
[14] = untitled table, medium/unit not given, values match RPMI of Table 2, in µg/mL

CC(C)C[C@@H](NC(=O)[C@@H](Cc1ccc(O)cc1)NC(=O)[C@@H](Cc1c[nH]cn1)NC(=O)[C@H](NC(=O)[C@@H](CC(C)C)NC(=O)[C@@H](C)NC(=O)[C@@H](C)NC(=O)[C@@H](CCCCN)NC(=O)CNC(=O)[C@@H](C)NC(=O)[C@@H](Cc1c[nH]cn1)NC(=O)[C@@H](CCCCN)NC(=O)CNC(=O)[C@@H](C)NC(=O)[C@@H](Cc1c[nH]cn1)NC(=O)[C@@H](C)NC(=O)[C@@H](C)NC(=O)[C@@H](CCCCN)NC(=O)[C@@H](CCCCN)NC(=O)[C@@H](Cc1ccccc1)NC(=O)[C@@H](Cc1ccccc1)NC(=O)[C@@H](CO)NC(=O)CNC(=O)[C@@H](Cc1c[nH]c2ccccc12)NC(=O)CN)[C@H](C)O)C(N)=O [D-pleurocidin-VA] (HELM PEPTIDE1{G.[dW].G.[dS].[dF].[dF].[dK].[dK].[dA].[dA].[dH].[dA].G.[dK].[dH].[dA].G.[dK].[dA].[dA].[dL].[dT].[dH].[dY].[dL].[am]}$$$$V2.0; N-terminus assumed)
MIC, Stability in serum (MH) ([1]; No serum): 4 | MIC, Stability in serum (MH) ([1]; Serum (10% fetal bovine serum)): 16 | MIC on initial panels [1]: 4 | MIC [1, 12]: 32 µg/mL (≈ 12.1 µM) | MIC on initial panels ([2]; medium and unit not given): 16 | MIC [2, 13]: 32-64 | MIC on initial panels, Fungi (C. albicans): 8 µg/mL (≈ 3.01 µM) | MIC, Stability in serum (MH) ([3]; No serum): 1 µg/mL (≈ 0.377 µM) | MIC, Stability in serum (MH) ([3]; Serum (10% fetal bovine serum)): 2 µg/mL (≈ 0.754 µM) | MIC on initial panels ([3]; in µg/mL): 1 | MIC [3, 14]: 8-32 | MIC on initial panels [4]: 64 | MIC [4, 12]: 32 µg/mL (≈ 12.1 µM) | MIC, Stability in serum (MH) (Klebsiella pneumoniae M6; No serum): 4 µg/mL (≈ 1.51 µM) | MIC, Stability in serum (MH) (Klebsiella pneumoniae M6; Serum (10% fetal bovine serum)): 8 µg/mL (≈ 3.01 µM) | MIC on initial panels (Klebsiella pneumoniae M6): 4 | MIC (Klebsiella pneumoniae M6; [14]): 32 | MIC on initial panels ([5]; AB17978): 1 | MIC ([5]; AB17978, untitled table, medium/unit not given, values match RPMI of Table 2): 16 | MIC, Stability in serum (MH) ([5]; No serum): 1 | MIC, Stability in serum (MH) ([5]; Serum (10% fetal bovine serum)): 2-16 | Toxicity HEK293 (HEK293): 217.3 ± 46.5 | Toxicity HEK293 (EC50), Peptide concentration (HEK293; value printed in parentheses): (217.3 ± 46.5) μg/ml | MIC, Peptide concentration ([6]; EMR -15 (EMRSA-15)): 8 µg/mL (≈ 3.01 µM) | MIC on initial panels ([6]; EMRSA15): 32 µg/mL (≈ 12.1 µM) | MIC ([6]; EMRSA15, untitled table, medium/unit inferred, values match RPMI of Table 2): 8 µg/mL (≈ 3.01 µM) | MIC, Peptide concentration ([6]; Mueller-Hinton broth): 32 µg/mL (≈ 12.1 µM) | Toxicity HeLa (HeLa): 198.2 ± 10.2 | Toxicity HeLa (EC50), Peptide concentration (HeLa; value printed in parentheses): (198.2 ± 10.2) μg/ml | MIC on initial panels (VRE12201): 128 µg/mL (≈ 48.2 µM) | MIC on initial panels (P. aeruginosa RP73; medium and unit not given): 16-64 | MIC (P. aeruginosa RP73; untitled table, medium/unit not given): 32-64 | Toxicity HC50, Peptide concentration (human red blood cells): >>400 μg/ml | MIC, Stability in serum (MH) ([7]; No serum): 1 µg/mL (≈ 0.377 µM) | MIC, Stability in serum (MH) ([7]; Serum (10% fetal bovine serum)): 1 µg/mL (≈ 0.377 µM) | MIC on initial panels ([7]; in µg/mL): 1 | MIC [7, 14]: 8 | MIC on initial panels [8]: 4 µg/mL (≈ 1.51 µM) | MIC [8, 14]: 8 | MIC, Stability in serum (MH) ([9]; No serum): 8 | MIC, Stability in serum (MH) ([9]; Serum (10% fetal bovine serum)): 8-32 | MIC on initial panels [9]: 8 | MIC [9, 13]: 32 | Toxicity Calu-3 (EC50), Peptide concentration (Calu-3): (>250) μg/ml | MIC, Peptide concentration ([10]; Mueller-Hinton broth): 64 (NG) μg/ml | MIC on initial panels [10]: 64 | MIC, Stability in serum (MH) ([11]; No serum): 32 | MIC, Stability in serum (MH) ([11]; Serum (10% fetal bovine serum)): 32 | MIC on initial panels [11]: 32 | MIC [11, 13]: >32 | Toxicity A549 (EC50), Peptide concentration (A549): (>250) μg/ml

GWGSFFRRAAHAGRHAGRAALTHYL-NH2 [D-pleuro-VAKR, 6x substituted (4 K->R plus 2 V->A), D-amino acids]
MIC on initial panels [1]: 4 | MIC on initial panels, Fungi (C. albicans): 32 µg/mL | MIC on initial panels ([3]; in µg/mL): 2 | MIC on initial panels [4]: 64 | MIC on initial panels (Klebsiella pneumoniae M6): 4 | MIC on initial panels ([5]; AB17978): 2 | Toxicity HEK293 (HEK293): 201.2 ± 25.1 | MIC on initial panels ([6]; EMRSA15): 32 µg/mL | Toxicity HeLa (HeLa): 124.0 ± 30.4 | MIC on initial panels (VRE12201): 128 µg/mL | MIC on initial panels ([7]; in µg/mL): 2 | MIC on initial panels [8]: 8 µg/mL | MIC on initial panels [9]: 4-8 | MIC on initial panels [10]: 32-64 | MIC on initial panels [11]: 32
